Key:
[1] = molecular target: T1, cloned human CRF-R1 receptors (Homo sapiens, UniProt P34998); experiment: CRF-R1 Receptor Binding Assay (inhibition of 125I-ovine-CRF binding to cell membranes); design: key to activity: a: Ki≦100 nM; b: 100 nM<Ki≦500 nM; c: 500 nM<Ki≦5,000 nM; activity reported in percent inhibition at 10 μM; settings: CRF assays; class d = activity only as percent inhibition at 10 μM (value not given)
T1 construct: the coding region was amplifies by PCR from start to stop codons; expressed in transfected cells; host or cells: 293EBNA (HEK 293 EBNA-1) cells, episomal vector phchCRFR, hygromycin-selected pool; membranes
T1 sequence (P34998 24-415): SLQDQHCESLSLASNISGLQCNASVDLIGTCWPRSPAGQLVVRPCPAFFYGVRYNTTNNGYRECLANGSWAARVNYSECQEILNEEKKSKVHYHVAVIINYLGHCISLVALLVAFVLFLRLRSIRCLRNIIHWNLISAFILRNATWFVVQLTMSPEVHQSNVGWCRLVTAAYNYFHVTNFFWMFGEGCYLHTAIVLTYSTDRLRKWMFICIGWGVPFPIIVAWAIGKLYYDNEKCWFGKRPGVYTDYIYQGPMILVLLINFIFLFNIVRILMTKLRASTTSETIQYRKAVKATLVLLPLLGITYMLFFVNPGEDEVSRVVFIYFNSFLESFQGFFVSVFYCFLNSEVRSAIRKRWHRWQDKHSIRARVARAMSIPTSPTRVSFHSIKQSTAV
Text: CRF-R1 Receptor Binding Assay for the Evaluation of Biological Activity
The following is a description of the isolation of cell membranes containing cloned human CRF-R1 receptors for use in a standard binding assay as well as a description of the assay itself.
Messenger RNA was isolated from human hippocampus. The mRNA was isolated from human hippocampus. The mRNA was reverse transcribed using oligo (dt) 12–18 and the coding region was amplifies by PCR from start to stop codons. The resulting PCR fragment was cloned into the EcORV site of pGEMV, from whence the insert was reclaimed using XhoI+XbaI and cloned into the XhoI+XbaI sites of vector pm3as (which contains a CMV promoter, the SV′t′ splice and early poly A signals, an Eptein-Barr viral origin of replication, and a hygromycin selectable marker). The resulting expression vector, called phchCRFR was transfected in 293EBNA cells and cells retaining the episome were selected in the presence of […] hygromycin. Cells surviving 4 weeks of selection in hygromycin were pooled, adapted to growth in suspension and used to generate membranes for the binding assay described below. Individual aliquots containing approximately 1×10^8 of the suspended cells were then centrifuged to form a pellet and frozen. For the binding assay a frozen pellet described above containing 293EBNA cells transfected with hCRFR1 receptors is homogenized in 10 mL of ice cold tissue buffer (50 mM HEPES buffer pH 7.0, containing 10 MM MgCl2, 2 mM EGTA, 1 μg/mL apotinin, 1 μg/mL leupeptin and 1 μg/mL pepstatin). The homoginate is centrifuged at 40,000×g for 12 min and the resulting pellet rehomogenized in 10 mL of tissue buffer. After another centrifugation at 40,000×g for 12 min, the pellet is resuspended to a protein concentration of 360 μg/mL to be used in the assay.
Binding assays are performed in 96 well plates; each well having a 300 μL capacity. To each well is added 50 μL of test drug dilutions (final concentration of drugs range from 10^−10–10^−5 M), 100 μL of ^125I-ovine-CRF (^125I-o-CRF) (final concentration 150 pM) and 150 μL of the cell homoginate described above. Plates are then allowed to incubate at room temperature for 2 hours before filtering the incubate over GF/F filters (presoaked with 0.3% polyethyleneimine) using an appropriate cell harvester. Filters are rinsed 2 times with ice cold assay buffer before removing individual filters and assessing them for radioactivity on a gamma counter.
Curves of the inhibition of ^125I-o-CRF binding to cell membranes at various dilutions of test drug are analyzed by the iterative curve fitting program LIGAND [P. J. Munson and D. Rodbard, Anal. Biochem., 107:220 (1980), which provides Ki values for inhibition which are then used to assess biological activity. […]
Messenger RNA was isolated from human hippocampus. The mRNA was isolated from human hippocampus. The mRNA was reverse transcribed using oligo (dt) 12–18 and the coding region was amplifies by PCR from start to stop codons. The resulting PCR fragment was cloned into the EcORV site of pGEMV, from whence the insert was reclaimed using XhoI+XbaI and cloned into the XhoI+XbaI sites of vector pm3as (which contains a CMV promoter, the SV′t′ splice and early poly A signals, an Eptein-Barr viral origin of replication, and a hygromycin selectable marker). The resulting expression vector, called phchCRFR was transfected in 293EBNA cells and cells retaining the episome were selected in the presence of […] hygromycin. Cells surviving 4 weeks of selection in hygromycin were pooled, adapted to growth in suspension and used to generate membranes for the binding assay described below. […]
A frozen pellet described above containing 293EBNA cells transfected with hCRFR1 receptors or the rat frontal cortex tissue dissected from frozen rat brains was prepared as the source of membranes expressing CRF1 receptors used in binding assays. […]

Structure (SMILES)	Ki [1] [nM]	melting point [°C]	activity [1]
COc1ccc(S(=O)(=O)c2cnc(C)nc2Nc2c(C)cc(C)cc2C)cc1 [Example 1, [5-(4-Methoxybenzenesulfonyl)-2-methylpyrimidin-4-yl]-(2,4,6-trimethylphenyl)-amine]	100 to 500	153 to 155	–
Cc1cc(C)c(Nc2nc(C)ncc2S(=O)(=O)c2ccc(O)cc2)c(C)c1 [Example 2, 4-[2-Methyl-4-(2,4,6-trimethylphenylamino)-pyrimidine-5-sulfonyl]-phenol]	500 to 5000	246 to 248	–
CC(=O)Oc1ccc(S(=O)(=O)c2cnc(C)nc2Nc2c(C)cc(C)cc2C)cc1 [Example 3, Acetic acid 4-[2-methyl-4-(2,4,6-trimethylphenylamino)-pyrimidine-5-sulfonyl]-phenyl ester]	500 to 5000	142 to 144	–
COc1cc(COc2ccc(S(=O)(=O)c3cnc(C)nc3Nc3c(C)cc(C)cc3C)cc2)cc(OC)c1 [Example 11, {5-[4-(3,5-Dimethoxybenzyloxy)-benzenesulfonyl]-2-methylpyrimidin-4-yl}-(2,4,6-trimethylphenyl)-amine]	≤ 100	–	–
Cc1cc(C)c(Nc2nc(C)ncc2S(=O)(=O)c2ccc(F)cc2)c(C)c1 [Example 15, [5-(4-Fluorobenzenesulfonyl)-2-methylpyrimidin-4-yl]-(2,4,6-trimethylphenyl)-amine]	100 to 500	191 to 193	–
Cc1cc(C)c(Nc2nc(C)ncc2S(=O)(=O)c2ccc(N3CCOCC3)cc2)c(C)c1 [Example 16, [2-Methyl-5-(4-morpholin-4-yl-benzenesulfonyl)-pyrimidin-4-yl]-(2,4,6-trimethylphenyl)-amine]	–	221 to 223	d
Cc1cc(C)c(Nc2nc(C)ncc2S(=O)(=O)c2ccc(N3CCN(C)CC3)cc2)c(C)c1 [Example 17, {2-Methyl-5-[4-(4-methylpiperazin-1-yl)-benzenesulfonyl]-pyrimidin-4-yl}-(2,4,6-trimethylphenyl)-amine]	–	–	d
Cc1cc(C)c(Nc2nc(C)ncc2S(=O)(=O)c2ccc(-n3ccnc3)cc2)c(C)c1 [Example 18, [5-(4-Imidazol-1-yl-benzenesulfonyl)-2-methylpyrimidin-4-yl]-(2,4,6-trimethylphenyl)-amine]	–	230 to 232	d
Cc1cc(C)c(Nc2nc(C)ncc2S(=O)(=O)c2ccc(N3CCCC3)cc2)c(C)c1 [Example 19, [2-Methyl-5-(4-pyrrolidin-1-yl-benzenesulfonyl)-pyrimidin-4-yl]-(2,4,6-trimethylphenyl)-amine]	–	196 to 198	d
Cc1cc(C)c(Nc2nc(C)ncc2S(=O)(=O)c2ccc(C#N)cc2)c(C)c1 [Example 22, 4-[2-Methyl-4-(2,4,6-trimethylphenylamino)-pyrimidine-5-sulfonyl]-benzonitrile]	500 to 5000	258 to 260	–
Cc1ccc(S(=O)(=O)c2cnc(C)nc2Nc2c(C)cc(C)cc2C)cc1 [Example 23, [2-Methyl-5-(toluene-4-sulfonyl)-pyrimidin-4-yl]-(2,4,6-trimethylphenyl)-amine]	100 to 500	202 to 204	–

The remaining lines, values ahead:

Ki [1] [nM]	melting point [°C]	activity [1]	Structure (SMILES)
≤ 100	166 to 168	–	Cc1cc(C)c(Nc2nc(C)ncc2S(=O)(=O)c2ccc(OCc3ccccc3)cc2)c(C)c1 [Example 4, [5-(4-Benzyloxybenzenesulfonyl)-2-methylpyrimidin-4-yl]-(2,4,6-trimethylphenyl)-amine]
100 to 500	110 to 114	–	COc1ccc(Nc2nc(C)ncc2S(=O)(=O)c2ccc(OCc3ccccc3)cc2)c(C)c1 [Example 5, [5-(4-Benzyloxybenzenesulfonyl)-2-methylpyrimidin-4-yl]-(4-methoxy-2-methylphenyl)-amine]
–	160 to 165	d	COc1ccc(Nc2nc(C)ncc2S(=O)(=O)c2ccc(OCc3ccccc3)cc2)c(C)n1 [Example 6, [5-(4-Benzyloxybenzenesulfonyl)-2-methylpyrimidin-4-yl]-(6-methoxy-2-methylpyridin-3-yl)-amine]
100 to 500	112 to 115	–	Cc1cc(C)c(Nc2nc(C)ncc2S(=O)(=O)c2cccc(OCc3ccccc3)c2)c(C)c1 [Example 7, [5-(3-Benzyloxybenzenesulfonyl)-2-methylpyrimidin-4-yl]-(2,4,6-trimethylphenyl)-amine]
–	–	d	COc1ncc(S(=O)(=O)c2cccc(OCc3ccccc3)c2)c(Nc2c(C)cc(C)cc2C)n1 [Example 8, [5-(3-Benzyloxybenzenesulfonyl)-2-methoxypyrimidin-4-yl]-(2,4,6-trimethylphenyl)-amine]
500 to 5000	52 to 58	–	Cc1cc(C)c(Nc2nc(N(C)C)ncc2S(=O)(=O)c2cccc(OCc3ccccc3)c2)c(C)c1 [Example 9, 5-(3-Benzyloxybenzenesulfonyl)-N^2,N^2-dimethyl-N^4-(2,4,6-trimethylphenyl)-pyrimidine-2,4-diamine]
≤ 100	200 to 202	–	COc1ccccc1COc1ccc(S(=O)(=O)c2cnc(C)nc2Nc2c(C)cc(C)cc2C)cc1 [Example 10, {5-[4-(2-Methoxybenzyloxy)-benzenesulfonyl]-2-methylpyrimidin-4-yl}-(2,4,6-trimethylphenyl)-amine]
–	–	d	COc1ccc(Nc2nc(C)ncc2S(=O)(=O)c2ccc(OCc3ccccc3)cc2)c(OC)c1 [Example 12, [5-(4-Benzyloxybenzenesulfonyl)-2-methylpyrimidin-4-yl]-(2,4-dimethoxyphenyl)-amine]
100 to 500	150 to 152	–	COc1ccc(S(=O)(=O)c2cnc(C)nc2Cc2c(C)cc(C)cc2C)cc1 [Example 13, 5-(4-Methoxyoxybenzenesulfonyl)-2-methyl-4-(2,4,6-trimethylbenzyl)-pyrimidine]
≤ 100	166 to 168	–	Cc1cc(C)c(Cc2nc(C)ncc2S(=O)(=O)c2ccc(OCc3ccccc3)cc2)c(C)c1 [Example 14, 5-(4-Benzyloxybenzenesulfonyl)-2-methyl-4-(2,4,6-trimethylbenzyl)-pyrimidine]
100 to 500	200 to 202	–	Cc1cc(C)c(Nc2nc(C)ncc2S(=O)(=O)c2ccc(NCc3ccccc3)cc2)c(C)c1 [Example 20, [5-(4-Benzylaminobenzenesulfonyl)-2-methylpyrimidin-4-yl]-(2,4,6-trimethylphenyl)-amine]
≤ 100	146 to 148	–	Cc1cc(C)c(Nc2nc(C)ncc2S(=O)(=O)c2ccc(N(C)Cc3ccccc3)cc2)c(C)c1 [Example 21, {5-[4-(Benzylmethylamino)-benzenesulfonyl]-2-methylpyrimidin-4-yl}-(2,4,6-trimethylphenyl)-amine]

Source: US7112585B2, “Pyrimidine derivatives as corticotropin releasing factor inhibitors” (Bristol-Myers Squibb Company, priority 2003, dated 2006)
